Broadly, the IC50 is the concentration that inhibits the measured activity by half.

Bounds are passed on as bounds.

This test has as its system DU 145. As to the kind of experiment: Proliferation test (cytotoxicity assay, crystal violet staining). The format is cell-based. The following applies: Homo sapiens; cytotoxicity assay using the cell line DU 145. The protocol:
Biological experiment 3: Proliferation test
To examine cell toxicity a cell proliferation test were established.
With the cell proliferation test different tumour cell lines (e.g. Du 145) can be examined. The cells were dispensed in RPMI 1640 culture medium, supplied with 10 % (v/v) fetal calf serum plus 1 % (v/v) Penicillin/Streptomycin solution at a cell density of 2.000 cell/100µL medium/per well (96well plate). After three hours the cells were washed with PBS (containing calcium and magnesium). 100 µl of culture medium above with 0.1 % (v/v) fetal calf serum was added and cultured at 37°C and 5% CO2-atmosphere. Next day compounds of the present invention diluted in DMSO for appropriate concentrations were added and further 100 µL culture medium 0.5 % (v/v) fetal calf serum. After 5 days cell culturing at 37°C and 5% CO2-atmosphere cells were washed with PBS. 20 µL of glutaraldehyde solution (11 % (v/v)) is added and the cells were slightly shaken at room temperature for 15 min. After that the cell were washed 3 times and dried in the air. 100 µL of crystal violet solution (0.1 % at pH 3.5) were added and the cells were shaken for 30 min. The cells were washed with tap water and air-dried. The colour is dissolved with 100 µL of acetic acid (10 % (v/v)) under strong shaking for 5 min. The absorption was measured at 595 nm wavelength.
The molecule `COC(=O)c1ccc(-c2cnc3nc2NCCCNS(=O)(=O)c2cccc(c2)N3)cc1` [Example Compound 1.1, methyl 4-[4,4-dioxo-4λ^6-thia-2,5,9-triaza-1(2,4)-pyrimidina-3(1,3)-benzenacyclononaphan-1^5-yl]benzoate] registered an IC50 greater than 1000 nM.
Under `CC(=O)c1ccc(-c2cnc3nc2NCCCNS(=O)(=O)c2cccc(c2)N3)cc1` [Example Compound 1.2, 1-[4-[4,4-dioxo-4λ^6-thia-2,5,9-triaza-1(2,4)-pyrimidina-3(1,3)-benzenacyclononaphan-1^5-yl]phenyl]ethanone] stands greater than 1000 nM.
As to `O=S1(=O)NCCCNc2nc(ncc2-c2ccccc2)Nc2cccc1c2` [Example Compound 1.3, 1^5-phenyl-4-thia-2,5,9-triaza-1(2,4)-pyrimidina-3(1,3)-benzenacyclononaphane 4,4-dioxide], the IC50 was greater than 1000 nM.
Under `COc1ccc(-c2cnc3nc2NCCCNS(=O)(=O)c2cccc(c2)N3)cc1` [Example Compound 1.5, 1^5-(4-methoxyphenyl)-4-thia-2,5,9-triaza-1(2,4)-pyrimidina-3(1,3)-benzenacyclononaphane 4,4-dioxide] stands greater than 1000 nM.

For the origin of these results see patent EP1674470A1, “Sulfonamido-macrocycles as Tie2 inhibitors” (Schering Aktiengesellschaft, priority 2004, dated 2006).
